The record followed here is PubChem BioAssay AID296 (DTP/NCI, 2004).

“And” between values parts separate entries of the source, which are not always exact repeats. Equal values may be shown once. Results filed as inconclusive are left out.

The test system of the test is MX-1 breast xenograft, nude mice, tumor weight T/C. Put plainly: NCI In Vivo Anticancer Drug Screen. Data for tumor model Human Mammary Carcinoma MX-1 Xenograft (intrarenal inoculation) in NU/NU Swiss (nude) mice. Conditions: endpoint: mean tumor weight change, higher = larger tumour. The method, then: The antitumor activity of compounds was measured in mice bearing transplantable tumors. Survival or tumor size were measured and the results are expressed as the measurement made in the treated group (T) divided by the measurement made in the vehicle treated control group (C). The tumor model used in this assay is Human Mammary Carcinoma MX-1 Xenograft (intrarenal inoculation) in NU/NU Swiss (nude) mice

The mark [1] stands for this setting: dose: 300.0 mg/kg/injection, schedule: Q04DX003 (sc), vehicle: saline with Tween-80.
Setting [2] is: dose: 600.0 mg/kg/injection, schedule: Q04DX003 (sc), vehicle: saline with Tween-80.
The mark [3] stands for this setting: dose: 1200.0 mg/kg/injection, schedule: Q04DX003 (sc), vehicle: saline with Tween-80.
Setting [4] is: dose: 2400.0 mg/kg/injection, schedule: Q04DX003 (sc), vehicle: saline with Tween-80.
[5] abbreviates: dose: 25.0 mg/kg/injection, schedule: Q04DX003 (sc), vehicle: Klucel (hydroxypropylcellulose) (HPC).
The mark [6] stands for this setting: dose: 50.0 mg/kg/injection, schedule: Q04DX003 (sc), vehicle: Klucel (hydroxypropylcellulose) (HPC).
[7] abbreviates: dose: 100.0 mg/kg/injection, schedule: Q04DX003 (sc), vehicle: Klucel (hydroxypropylcellulose) (HPC).
Where [8] appears, read: dose: 200.0 mg/kg/injection, schedule: Q04DX003 (sc), vehicle: Klucel (hydroxypropylcellulose) (HPC).
Where [9] appears, read: dose: 300.0 mg/kg/injection, schedule: Q04DX003 (sc), vehicle: Klucel (hydroxypropylcellulose) (HPC).
Setting [10] is: dose: 600.0 mg/kg/injection, schedule: Q04DX003 (sc), vehicle: Klucel (hydroxypropylcellulose) (HPC).
Setting [11] is: dose: 1200.0 mg/kg/injection, schedule: Q04DX003 (sc), vehicle: Klucel (hydroxypropylcellulose) (HPC).
Where [12] appears, read: dose: 2400.0 mg/kg/injection, schedule: Q04DX003 (sc), vehicle: Klucel (hydroxypropylcellulose) (HPC).

Consider `COc1nc(C(Cl)(Cl)Cl)c(Cl)c(OC)c1Cl`, for which the T/C runs as follows: (dose: 75.0 mg/kg/injection, schedule: Q04DX003 (ip), vehicle: Klucel (hydroxypropylcellulose) (HPC)) 33 % of control; (dose: 150.0 mg/kg/injection, schedule: Q04DX003 (ip), vehicle: Klucel (hydroxypropylcellulose) (HPC)) -28 % of control; (dose: 150.0 mg/kg/injection, schedule: Q04DX003 (oral), vehicle: Klucel (hydroxypropylcellulose) (HPC)) -33 % of control; (dose: 300.0 mg/kg/injection, schedule: Q04DX003 (ip), vehicle: Klucel (hydroxypropylcellulose) (HPC)) 10 % of control; (dose: 300.0 mg/kg/injection, schedule: Q04DX003 (oral), vehicle: Klucel (hydroxypropylcellulose) (HPC)) -15 % of control.
With `O/N=C/c1ccccc1O.O/N=C/c1ccccc1O.[Cu]`, the T/C runs as follows: under setting [1], 81 % of control; under setting [2], 72 % of control; under setting [3], 60 % of control; under setting [4], 103 % of control.
As to `CSc1cc(C)[o+]c(C)c1`, the T/C under setting [5] is 76 % of control, the T/C under setting [6] is 68 % of control, the T/C under setting [7] is 54 % of control and the T/C under setting [8] is 36 % of control.
Turning to `N[C@@H](Cc1ccc(N(CCCl)CCCl)cc1)C(=O)O`, the T/C was 23 % of control and 34 % of control (dose: 1.5 mg/kg/injection, schedule: Q04DX003 (sc), vehicle: suspension in saline); -42 % of control and -36 % of control (dose: 2.0 mg/kg/injection, schedule: Q01DX010 (ip), vehicle: saline); 4 % of control and 8 % of control (dose: 3.0 mg/kg/injection, schedule: Q04DX003 (sc), vehicle: suspension in saline); -15 % of control (dose: 3.33 mg/kg/injection, schedule: Q04DX003 (ip), vehicle: saline); 7 % of control (dose: 3.33 mg/kg/injection, schedule: Q04DX003 (sc), vehicle: saline); -91 % of control (dose: 4.0 mg/kg/injection, schedule: Q01DX010 (ip), vehicle: saline). In addition, the T/C reads like this: (dose: 4.0 mg/kg/injection, schedule: Q01DX010 (sc), vehicle: suspension in saline) -100 % of control; (dose: 6.0 mg/kg/injection, schedule: Q04DX003 (sc), vehicle: suspension in saline) -72 % of control and -58 % of control; (dose: 6.65 mg/kg/injection, schedule: Q04DX003 (ip), vehicle: saline) -87 % of control; (dose: 6.65 mg/kg/injection, schedule: Q04DX003 (sc), vehicle: saline) -51 % of control; (dose: 12.0 mg/kg/injection, schedule: Q04DX003 (sc), vehicle: saline) -100 % of control; (dose: 12.0 mg/kg/injection, schedule: Q04DX003 (sc), vehicle: suspension in saline) -100 % of control.
Turning to `Cc1cc(C)c(-c2cc(O)c(C)cc2O)c(C)c1`, the T/C reads like this: under setting [9], 588 % of control; under setting [10], 557 % of control; under setting [11], 388 % of control; under setting [12], 420 % of control.
Regarding `Nc1nc2c(C(=O)N3CCCC3)nnn2c2ccccc12`, the T/C by setting is: (dose: 37.5 mg/kg/injection, schedule: Q04DX003 (sc), vehicle: saline with Tween-80) 35 % of control; (dose: 75.0 mg/kg/injection, schedule: Q04DX003 (sc), vehicle: saline with Tween-80) 74 % of control; (dose: 150.0 mg/kg/injection, schedule: Q04DX003 (sc), vehicle: saline with Tween-80) 49 % of control.
As to `O=NN(CCCl)C(=O)NC1CCCCC1`, the T/C is, setting by setting: (dose: 4.0 mg/kg/injection, schedule: Q01DX010 (sc), vehicle: saline with Tween-80) 109 % of control; (dose: 8.0 mg/kg/injection, schedule: Q04DX003 (sc), vehicle: Klucel (hydroxypropylcellulose) (HPC)) 88 % of control and 92 % of control; (dose: 8.0 mg/kg/injection, schedule: Q04DX003 (sc), vehicle: carboxymethylcellulose (CMC)) 89 % of control; (dose: 12.5 mg/kg/injection, schedule: Q04DX003 (sc), vehicle: Klucel (hydroxypropylcellulose) (HPC)) 59 % of control; (dose: 16.0 mg/kg/injection, schedule: Q01DX010 (sc), vehicle: saline with Tween-80) 28 % of control; (dose: 16.0 mg/kg/injection, schedule: Q04DX003 (sc), vehicle: carboxymethylcellulose (CMC)) 85 % of control. Moreover, the T/C under setting [5] was 92 % of control and 213 % of control; the T/C (dose: 32.0 mg/kg/injection, schedule: Q04DX003 (sc), vehicle: carboxymethylcellulose (CMC)) is 77 % of control; the T/C (dose: 64.0 mg/kg/injection, schedule: Q04DX003 (sc), vehicle: Klucel (hydroxypropylcellulose) (HPC)) is -95 % of control; the T/C (dose: 64.0 mg/kg/injection, schedule: Q04DX003 (sc), vehicle: carboxymethylcellulose (CMC)) was 29 % of control.
For the compound `O=C(O)C(CSC(c1ccccc1)(c1ccccc1)c1ccccc1)N=Cc1cccs1` (stereo unspecified), the T/C (dose: 800.0 mg/kg/injection, schedule: Q04DX003 (sc), vehicle: suspension in saline) is 67 % of control.
As to `CCCCNC(C)C1(O)Cc2c(O)c3c(c(O)c2C(OC2CC(N)C(O)C(C)O2)C1)C(=O)c1c(OC)cccc1C3=O` (stereo unspecified), the T/C reads like this: (dose: 100.0 mg/kg/injection, schedule: Q01DX010 (sc), vehicle: water) 115 % of control; (dose: 200.0 mg/kg/injection, schedule: Q01DX010 (sc), vehicle: water) 75 % of control.
Consider `O=C(CCBr)N1CCN(C(=O)CCBr)CC1`, for which the T/C is, setting by setting: (dose: 4.5 mg/kg/injection, schedule: Q01DX010 (sc), vehicle: Klucel (hydroxypropylcellulose) (HPC)) 111 % of control; (dose: 12.5 mg/kg/injection, schedule: Q01DX010 (sc), vehicle: Klucel (hydroxypropylcellulose) (HPC)) 52 % of control; (dose: 18.0 mg/kg/injection, schedule: Q01DX010 (sc), vehicle: Klucel (hydroxypropylcellulose) (HPC)) 33 % of control and 48 % of control; (dose: 25.0 mg/kg/injection, schedule: Q01DX010 (sc), vehicle: Klucel (hydroxypropylcellulose) (HPC)) 19 % of control; (dose: 36.0 mg/kg/injection, schedule: Q01DX010 (sc), vehicle: Klucel (hydroxypropylcellulose) (HPC)) 1 % of control and 9 % of control.
Regarding `C[Si](C)(C)OSc1ccccc1[N+](=O)[O-]`, the T/C was 92 % of control under setting [9], 95 % of control under setting [10], 80 % of control under setting [11] and 107 % of control under setting [12].
In the case of `C=CCOCC1CO1` (stereo unspecified), the T/C (dose: 300.0 mg/kg/injection, schedule: Q04DX003 (sc), vehicle: saline) was 72 % of control.
For `CN(C)CCOc1ccc2c(c1)C/C(=C/c1ncc([N+](=O)[O-])n1C)C2=O`, the T/C is, setting by setting: under setting [1], 81 % of control; under setting [2], 68 % of control; under setting [3], 89 % of control; under setting [4], 70 % of control.
Take `O=C(C#Cc1ccccc1)c1ccccc1`: the T/C reads like this: under setting [6], 76 % of control; under setting [7], 113 % of control; under setting [8], 87 % of control; under setting [9], 87 % of control; (dose: 400.0 mg/kg/injection, schedule: Q04DX003 (sc), vehicle: Klucel (hydroxypropylcellulose) (HPC)) 42 % of control; under setting [10], 110 % of control. The T/C under setting [11] was 104 % of control.
Consider `CC(=O)OC1=NC(C)c2c1cc(OC(C)=O)[nH]c2=O` (stereo unspecified), for which the T/C under setting [9] is 102 % of control, the T/C under setting [10] is 91 % of control and the T/C under setting [11] was 70 % of control.
Consider `COC(=O)NC1C(C)OC(OC2C/C=C(/C)C3C=CC4C(OC5CC(OC6CCC(OC7CC(O)C(OC8CCC(O)C(C)O8)C(C)O7)C(C)O6)C(OC(C)=O)C(C)O5)C(C)CC(C)C4C3(C)/C(O)=C3/C(=O)OC4(CC(C=O)=CC(O)C4/C=C\2C)C3=O)CC1(C)[N+](=O)[O-]` (stereo unspecified), for which the T/C (dose: 25.0 mg/kg/injection, schedule: Q04DX003 (sc), vehicle: other) is 95 % of control and the T/C (dose: 50.0 mg/kg/injection, schedule: Q04DX003 (sc), vehicle: other) is 71 % of control.
